The text below walks through data of patent US9462808B2, “Pesticidal compositions” (Syngenta Participants AG, priority 2010, dated 2016).

Common to all, as to format: in vivo
For data set [1], the system named is Rhopalosiphum padi (cereal aphid). In words: Activity against Rhopalosiphum padi (cereal aphid) on wheat, selected safeners at different mixture ratios, 7 DAA (Example B3). Particulars: AI rate 12.5 ppm. The protocol:
One replicate consisted of 4 wheat plants per pot. […] Test solutions contained the formulated test compounds, the adjuvant Mero (0.1% v/v), and selected safeners at different mixture ratios. 7d after application aphid mortality and was evaluated.

Data set [2] shares this test system. In words: Activity against Rhopalosiphum padi (cereal aphid) on wheat, spray with safener cloquintocet, 6 days after application (Example B1). Particulars: 144 h, test compound 25 ppm, adjuvant Mero 0.1% v/v, 6 days after application, Abbott's formula, read-out: Efficacy (% mortality) against cereal aphids (Rhopalosiphum padi). The protocol:
One replicate consisted of 4 wheat plants per pot. […] 9 days after seeding all wheat plants (10replicates) were sprayed with respective test solutions. […] 6 days after application aphid mortality and phytotoxicity were evaluated. […] Additionally the average plant height per replicate was measured.

Data set [3] concerns Nilaparvata lugens (brown plant hopper, BPH). As to the kind of experiment: Activity against Nilaparvata lugens (brown plant hopper, BPH) on rice, spray with safeners, 7 d after application (Example B2). The settings on record: 168 h, read-out: % mortality, corr.; for mortality at 25 ppm: 25 ppm AI; for mortality at 50 ppm: 50 ppm AI; for mortality at 100 ppm: 100 ppm AI; for mortality at 200 ppm: 200 ppm AI. The procedure:
Eight replicates (pots with rice plants) were sprayed with respective test solutions. Test solutions contained the formulated test compound and the safener cloquintocet and N-(2-methoxybenzoyl)-4-[(methylaminocarbonyl)amino]-benzenesulfonamide at different ratios. 4 pots were infested with plant hopper nymphs right after application. 7d after application BPH mortality and plant safety were evaluated. […] Assessment on plant safety was done by measuring the average plant height per replicate.

For data set [4], the system named is Wheat, Triticium durum (Poaceae) var. Arina. As to the kind of experiment: Reduction of phytotoxicity by safeners applied as seed treatment with compound of formula I on wheat (Example B4). The procedure:
Test compounds: compound P1.2 according to Table P1, as SC 050; Safener 1=cloquintocet-mexyl, as WP 25, Safener 2=mefenpyr-diethyl as WP 25, Safener 3═N-(2-methoxybenzoyl)-4-[(methylaminocarbonyl)amino]benzenesulfonamide, as SC 100. • Plants: Wheat, Triticium durum (Poaceae) var. Arina • Seed treatment: The seeds were treated by shaking the seeds with a slurry for 30 seconds in a glass flask. Treatments were 10% overdosed to compensate for substance adhering to the flask. In a first step, compound P1.2 was treated on the seeds. Afterwards the safeners were treated on the dried seeds. […] The loading rates of the safeners were 0.5, 0.1 and 0.025 mg a.i./seed. Soil: “Drench soil”, loamy sand, prefertilised with 1 g/I soil of Landor 13.1.3.21. • Procedures: 9-cm pots were filled with 330 ml of Drench soil loamy sand and the seeds were placed into the soil in about 5 mm beneath the soil surface. • Conditions: During the growth period the plants were kept in a randomised fashion in a greenhouse chamber at 25° C. during daytime, 23° C. during night, 50-60% rH, a 14-hour photoperiod and artificial lighting when natural light fell below 20 kLux. During the exposure the assay was kept at 22° C. • Assessments: 14 days after emergence, the phytotoxicity was recorded.

Read-outs that look alike come from different tables or passages of the source.

`CCOC(=O)OC1=C(c2c(C)cc(C)cc2C)C(=O)N(C)C12CCN(OC)CC2` [Compound P1.2, Carbonic acid ethyl ester 8-methoxy-1-methyl-2-oxo-3-(2,4,6-trimethyl-phenyl)-1,8-diaza-spiro[4.5]dec-3-en-4-yl ester]: the “Efficacy (% mortality) against cereal aphids (Rhopalosiphum padi) 7DAA” value in data set [1] (+ Cloquintocet-mexyl, ratio AI:safener 1:2) is given as 94%; in data set [1] (+ Cloquintocet-mexyl, ratio AI:safener 1:4) it was 91%; in data set [1] (+ Cloquintocet-mexyl, ratio AI:safener 1:8), 91%; in data set [1] (+ Mefenpyr-diethyl, ratio AI:safener 1:2), 97%; in data set [1] (+ Mefenpyr-diethyl, ratio AI:safener 1:4), 92%; in data set [1] (+ Mefenpyr-diethyl, ratio AI:safener 1:8), 92%. Also, the “Efficacy (% mortality) against cereal aphids (Rhopalosiphum padi) 7DAA” value in data set [1] (+ Safener 2 (N-(2-methoxybenzoyl)-4-[(methylaminocarbonyl)amino]benzenesulfonamide), ratio AI:safener 1:2) is 97%; in data set [1] (+ Safener 2 (N-(2-methoxybenzoyl)-4-[(methylaminocarbonyl)amino]benzenesulfonamide), ratio AI:safener 1:4) it was 95%; in data set [1] (+ Safener 2 (N-(2-methoxybenzoyl)-4-[(methylaminocarbonyl)amino]benzenesulfonamide), ratio AI:safener 1:8) it was 97%; in data set [1] (no safener, spray on wheat, Abbott's formula) it was 98%. In addition, the mortality – broadly, the share of the test organisms that died – at 25 ppm in data set [2] (ratio AI:safener cell blank (no safener), wheat) was found to be 97.4%; in data set [2] (safener cloquintocet, ratio AI:safener 1:1, wheat), 93.4%; in data set [2] (safener cloquintocet, ratio AI:safener 1:2, wheat), 94.4%; in data set [3] (Cloquintocet, ratio AI:safener 1.9:1, 7 d after application), 30%; in data set [3] (Safener 2, ratio AI:safener 1.9:1, 7 d after application), 3%. Also, the mortality at 12.5 ppm in data set [3] (12.5 ppm AI, Safener 2, ratio AI:safener 0.9:1, 7 d after application) is 0%. For the same compound, the mortality at 50 ppm in data set [3] (Cloquintocet, ratio AI:safener 1.25:1, 7 d after application) amounted to 57%; in data set [3] (Safener 2, ratio AI:safener 1.25:1, 7 d after application), 42%. For the same compound, the mortality at 100 ppm in data set [3] (Cloquintocet, ratio AI:safener 7.5:1, 7 d after application) amounted to 78%; in data set [3] (Safener 2, ratio AI:safener 7.5:1, 7 d after application), 68%. The mortality at 200 ppm in data set [3] (Cloquintocet, ratio AI:safener 15:1, 7 d after application) came out at 93%; in data set [3] (Safener 2, ratio AI:safener 15:1, 7 d after application), 85%. The “Phytotoxicity after seed treatment” value in data set [4] (P1.2 0.1 mg a.i./seed with safeners (cloquintocet-mexyl, mefenpyr-diethyl, N-(2-methoxybenzoyl)-4-[(methylaminocarbonyl)amino]benzenesulfonamide), wheat, 14 days after emergence) is listed as “safeners protect the plants from the adverse effects”. Besides, in data set [4] (seed treatment, 1 mg compound P1.2, without safener), the “Phytotoxicity (%) of compound P1.2 on wheat, control without safener” value is “Control: application of 1 mg compound P1.2. without safener results in 64.3% phyotoxicity”.
